One assay concerns the target CK1ε (Homo sapiens (Human), UniProt P49674). The assay can be described thus: CK1ε kinase assay (Caliper LABCHIP electrophoretic separation of fluoresceinated peptide substrate and product). The class given is biochemical. Conditions: 200 pM enzyme, 50 μM ATP, 22 hours at room temperature. The method in brief:
(§1)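 Reactions ran 22 hours at room temperature and were stopped with EDTA. Phosphorylated product and unphosphorylated substrate were then separated electrophoretically. Compounds were tested at eleven concentrations, and IC50 values came from non-linear regression.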

For a further assay, the target named is CK1δ (Homo sapiens (Human), UniProt P48730). Briefly: CK1δ kinase assay (Caliper LABCHIP electrophoretic separation of fluoresceinated peptide substrate and product). The class given is biochemical. Conditions: 200 pM enzyme, 50 μM ATP, 22 hours at room temperature. The gist of the method:
as §1

CK1δ, sequence (P48730 whole entry): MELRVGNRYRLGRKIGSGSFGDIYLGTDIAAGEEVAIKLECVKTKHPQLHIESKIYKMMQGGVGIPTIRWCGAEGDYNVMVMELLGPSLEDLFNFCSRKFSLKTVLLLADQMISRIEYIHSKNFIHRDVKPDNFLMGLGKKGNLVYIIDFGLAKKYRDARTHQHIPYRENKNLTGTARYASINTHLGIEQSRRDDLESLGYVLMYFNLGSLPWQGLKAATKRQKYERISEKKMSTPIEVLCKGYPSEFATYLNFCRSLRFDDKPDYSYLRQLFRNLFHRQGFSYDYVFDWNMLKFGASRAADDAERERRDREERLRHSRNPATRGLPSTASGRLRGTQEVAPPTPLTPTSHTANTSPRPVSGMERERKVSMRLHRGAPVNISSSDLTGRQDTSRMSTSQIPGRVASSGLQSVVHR
CK1ε, sequence (P49674 whole entry): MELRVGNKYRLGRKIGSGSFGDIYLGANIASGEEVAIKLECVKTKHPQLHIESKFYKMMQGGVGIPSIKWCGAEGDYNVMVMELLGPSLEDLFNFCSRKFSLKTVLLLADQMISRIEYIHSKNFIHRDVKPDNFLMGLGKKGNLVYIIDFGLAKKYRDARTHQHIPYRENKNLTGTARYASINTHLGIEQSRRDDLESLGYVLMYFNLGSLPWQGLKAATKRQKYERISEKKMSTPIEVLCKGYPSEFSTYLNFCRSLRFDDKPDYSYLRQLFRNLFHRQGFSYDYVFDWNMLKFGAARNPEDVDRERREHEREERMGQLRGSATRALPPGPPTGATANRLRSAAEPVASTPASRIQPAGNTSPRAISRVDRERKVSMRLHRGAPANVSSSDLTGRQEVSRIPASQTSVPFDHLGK

Regarding `O=C(Nc1cn2nc(-c3c(-c4ccc(F)cc4)ncn3C3CCN(C(=O)c4cc(C5CC5)on4)CC3)ccc2n1)c1ccnc(F)c1` [Compound 45, N-(6-(1-(1-(5-cyclopropylisoxazole-3-carbonyl)piperidin-4-yl)-4-(4-fluorophenyl)-1H-imidazol-5-yl)imidazo[1,2-b]pyridazin-2-yl)-2-fluoroisonicotinamide], the 50% inhibitory concentration (IC50) was 16.4 nM at CK1ε and 1.98 nM on CK1δ.

On to `Cc1nc(-c2ccc(F)cc2)c(-c2ccc3nc(NC(=O)c4ccc5cnccc5c4)cn3n2)n1C` [Compound 339, N-(6-(4-(4-fluorophenyl)-1,2-dimethyl-1H-imidazol-5-yl)imidazo[1,2-b]pyridazin-2-yl)isoquinoline-6-carboxamide], for which the half-inhibitory concentration (IC50) stood at 1.61 nM on CK1ε and 0.187 nM against CK1δ.

On to `COCCN1CCC(n2c(C3CC3)nc(-c3ccc(F)cc3)c2-c2ccc3nc(NC(=O)c4ccnc(F)c4)cn3n2)CC1` [Compound 120, N-(6-(2-cyclopropyl-4-(4-fluorophenyl)-1-(1-(2-methoxyethyl)piperidin-4-yl)-1H-imidazol-5-yl)imidazo[1,2-b]pyridazin-2-yl)-2-fluoroisonicotinamide], for which the IC50 against CK1ε was determined as 16.7 nM; against CK1δ, 1.52 nM.

With `CN1CC(n2cnc(-c3ccc(F)cc3)c2-c2ccc3nc(NC(=O)c4ccnc(F)c4)cn3n2)C1` [Compound 149, 2-fluoro-N-(6-(4-(4-fluorophenyl)-1-(1-methylazetidin-3-yl)-1H-imidazol-5-yl)imidazo[1,2-b]pyridazin-2-yl)isonicotinamide], the IC50 worked out at 2.84 nM against CK1ε and 2.19 nM at CK1δ.

Consider `CC(C)(C)Cn1cnc(-c2ccc(F)cc2)c1-c1ccc2nc(NC(=O)c3ccnc(F)c3)cn2n1` [Compound 258, N-(6-(1-(2,2-dimethylpropyl)-4-(4-fluorophenyl)-1H-imidazol-5-yl)imidazo[1,2-b]pyridazin-2-yl)-2-fluoroisonicotinamide], for which the half-inhibitory concentration (IC50) was found to be 6.56 nM on CK1ε and 0.393 nM at CK1δ.

Consider `Cc1nc(-c2ccc(F)cc2)c(-c2ccc3nc(NC(=O)c4c[nH]c5ccccc45)cn3n2)n1C` [Compound 342, N-(6-(4-(4-fluorophenyl)-1,2-dimethyl-1H-imidazol-5-yl)imidazo[1,2-b]pyridazin-2-yl)-1H-indole-3-carboxamide], for which the results for the half-maximal inhibitory concentration (IC50) on CK1ε and against CK1δ were 4.89 nM and 1.41 nM, respectively.

For the compound `Cc1nc(-c2ccc(F)cc2)c(-c2ccc3nc(NC(=O)c4cccc5ncccc45)cn3n2)n1C` [Compound 328, N-(6-(4-(4-fluorophenyl)-1,2-dimethyl-1H-imidazol-5-yl)imidazo[1,2-b]pyridazin-2-yl)-5-quinolinecarboxamide], the IC50 at CK1ε stood at 2.13 nM; against CK1δ it was 0.335 nM.

For `O=C(Nc1cn2nc(-c3c(-c4ccc(F)cc4)nc4n3CCNC4)ccc2n1)c1cccc(-c2cccnc2)c1` [Compound 459, N-(6-(2-(4-Fluorophenyl)-5,6,7,8-tetrahydroimidazo[1,2-a]pyrazin-3-yl)imidazo[1,2-b]pyridazin-2-yl)-3-(pyridin-3-yl)benzamide], the values for the IC50 on CK1ε and against CK1δ were 2.6 nM and 0.3 nM, respectively.

Regarding `Cc1nc(-c2cccnc2)sc1C(=O)Nc1cn2nc(-c3c(-c4ccc(F)cc4)ncn3CCN3CCOCC3)ccc2n1` [Compound 163, N-(6-(4-(4-fluorophenyl)-1-(2-morpholinoethyl)-1H-imidazol-5-yl)imidazo [1,2-b]pyridazin-2-yl)-4-methyl-2-(pyridin-3-yl) thiazole-5-carboxamide], the IC50 against CK1ε was 0.936 nM; on CK1δ, 0.242 nM.

For the compound `N#CC1(C(=O)N2CCn3c(nc(-c4ccc(F)cc4)c3-c3ccc4nc(NC(=O)c5ccnc(F)c5)cn4n3)C2)CC1` [Compound 471, N-(6-(7-(1-Cyanocyclopropanecarbonyl)-2-(4-fluorophenyl)-5,6,7,8-tetrahydroimidazo[1,2-a]pyrazin-3-yl)imidazo[1,2-b]pyridazin-2-yl)-2-fluoroisonicotinamide], the IC50 against CK1ε amounted to 3.5 nM; at CK1δ, 0.5 nM.

For `O=C(Nc1cn2nc(-c3c(-c4ccc(F)cc4)nc4ccccn34)ccc2n1)c1ccc(-c2cc[nH]n2)cc1` [Compound 170, N-(6-(2-(4-fluorophenyl)imidazo[1,2-a]pyridin-3-yl)imidazo[1,2-b]pyridazin-2-yl)-4-(1H-pyrazol-3-yl) benzamide], the concentration for half-maximal inhibition (IC50) was 8.43 nM on CK1ε and 0.743 nM at CK1δ.

`Cn1nccc1CN1CCC(n2c(C3CC3)nc(-c3ccc(F)cc3)c2-c2ccc3nc(NC(=O)c4ccnc(F)c4)cn3n2)CC1` [Compound 129, N-(6-(2-cyclopropyl-4-(4-fluorophenyl)-1-(1-((1-methyl-1H-pyrazol-5-yl)methyl)piperidin-4-yl)-1H-imidazol-5-yl)imidazo[1,2-b]pyridazin-2-yl)-2-fluoroisonicotinamide]: the IC50 came to 19.1 nM at CK1ε and 2.28 nM against CK1δ.

As for `Cc1nc(-c2ccc(F)cc2)c(-c2ccc3nc(NC(=O)c4ccnc(F)c4)c(Cl)n3n2)n1C` [Compound 412, N-(3-Chloro-6-(4-(4-fluorophenyl)-1,2-dimethyl-1H-imidazol-5-yl)imidazo[1,2-b]pyridazin-2-yl)-2-fluoroisonicotinamide], the IC50 was determined as 26.6 nM on CK1ε and 2.25 nM against CK1δ.

With `O=C(Nc1cn2nc(-c3c(-c4ccc(F)cc4)nc4ccc(N5CCCC5)nn34)ccc2n1)c1ccncc1` [Compound 222, N-(2-(4-fluorophenyl)-6-(pyrrolidin-1-yl)-[3,6′-biimidazo[1,2-b]pyridazin]-2′-yl)isonicotinamide], the concentration for half-maximal inhibition (IC50) on CK1ε came out at 43.6 nM; against CK1δ it was 30.7 nM.

As for `O=C(Nc1cn2nc(-c3c(-c4ccc(F)cc4)ncn3C3CCN(C(=O)c4cscn4)CC3)ccc2n1)c1ccnc(F)c1` [Compound 44, 2-fluoro-N-(6-(4-(4-fluorophenyl)-1-(1-(thiazole-4-carbonyl)piperidin-4-yl)-1H-imidazol-5-yl)imidazo[1,2-b]pyridazin-2-yl)isonicotinamide], the values for the IC50 on CK1ε and against CK1δ were 1.23 nM and 0.295 nM, respectively.

Turning to `O=C(Nc1cn2nc(-c3c(-c4ccc(F)cc4)nc4n3CCN(C(=O)CC(F)(F)F)C4)ccc2n1)c1ccnc(F)c1` [Compound 461, 2-Fluoro-N-(6-(2-(4-fluorophenyl)-7-(3,3,3-trifluoropropanoyl)-5,6,7,8-tetrahydroimidazo[1,2-a]pyrazin-3-yl)imidazo[1,2-b]pyridazin-2-yl)isonicotinamide], the IC50 is 2.6 nM against CK1ε and 0.6 nM on CK1δ.

As for `O=C(Nc1cn2nc(-c3c(-c4ccc(F)cc4)nc(C4CC4)n3C3CCN(Cc4ccon4)CC3)ccc2n1)c1cccc(-c2cccnc2)c1` [Compound 138, N-(6-(2-cyclopropyl-4-(4-fluorophenyl)-1-(1-(isoxazol-3-ylmethyl)piperidin-4-yl)-1H-imidazol-5-yl)imidazo[1,2-b]pyridazin-2-yl)-3-(pyridin-3-yl)benzamide], the IC50 on CK1ε worked out at 11 nM; at CK1δ, 1.56 nM.

`O=C(Nc1cn2nc(-c3c(-c4ccc(F)cc4)nc4n3CCOC4)ccc2n1)c1cc(F)nc(F)c1` [Compound 449, 2,6-Difluoro-N-(6-(2-(4-fluorophenyl)-6,8-dihydro-5H-imidazo[2,1-c][1,4]oxazin-3-yl)imidazo[1,2-b]pyridazin-2-yl)isonicotinamide]: the IC50 came out at 9 nM against CK1ε and 0.7 nM against CK1δ.

For the compound `O=C(Nc1cn2nc(-c3c(-c4ccc(F)cc4)nc4n3CCOC4)ccc2n1)c1cccc(-c2cccnc2)c1` [Compound 451, N-(6-(2-(4-Fluorophenyl)-6,8-dihydro-5H-imidazo[2,1-c][1,4]oxazin-3-yl)imidazo[1,2-b]pyridazin-2-yl)-3-(pyridin-3-yl)benzamide], the results for the concentration for half-maximal inhibition (IC50) on CK1ε and against CK1δ were 4.6 nM and 0.4 nM, respectively.

Consider `CC(C)(O)C(=O)N1CCC(n2cnc(-c3ccc(F)cc3)c2-c2ccc3nc(NC(=O)c4ccnc(F)c4)cn3n2)CC1` [Compound 55, 2-fluoro-N-(6-(4-(4-fluorophenyl)-1-(1-(2-hydroxy-2-methylpropanoyl)piperidin-4-yl)-1H-imidazol-5-yl)imidazo[1,2-b]pyridazin-2-yl)isonicotinamide], for which the IC50 on CK1ε stood at 1.05 nM; at CK1δ, 0.178 nM.

On to `CC(C)(C)C(=O)N1CCC(n2cnc(-c3ccc(F)cc3)c2-c2ccc3nc(NC(=O)c4ccnc(F)c4)cn3n2)CC1` [Compound 54, 2-fluoro-N-(6-(4-(4-fluorophenyl)-1-(1-pivaloylpiperidin-4-yl)-1H-imidazol-5-yl)imidazo[1,2-b]pyridazin-2-yl)isonicotinamide], for which the IC50 amounted to 3.09 nM against CK1ε and 0.446 nM on CK1δ.

With `CC(C)OC(=O)N1CCn2c(nc(-c3ccc(F)cc3)c2-c2ccc3nc(NC(=O)c4ccnc(F)c4)cn3n2)C1` [Example 475], the IC50 came to 8.1 nM against CK1ε and 0.7 nM at CK1δ.

For `Cc1nc(-c2ccc(F)cc2)c(-c2ccc3nc(NC(=O)c4c[nH]c5ncccc45)cn3n2)n1C` [Compound 343, N-(6-(4-(4-fluorophenyl)-1,2-dimethyl-1H-imidazol-5-yl)imidazo[1,2-b]pyridazin-2-yl)-1H-pyrrolo[2,3-b] pyridine-3-carboxamide], the IC50 on CK1ε stood at 2.17 nM; at CK1δ it was 0.921 nM.

Take `Cc1nc(-c2ccc(F)cc2)c(-c2ccc3nc(NC(=O)c4cnc[nH]4)cn3n2)n1C` [Compound 380, N-(6-(4-(4-fluorophenyl)-1,2-dimethyl-1H-imidazol-5-yl)imidazo[1,2-b]pyridazin-2-yl)-1H-imidazole-5-carboxamide]: the IC50 worked out at 36.1 nM on CK1ε and 5.23 nM on CK1δ.

`O=C(Nc1cn2nc(-c3c(-c4cccc(Cl)c4)ncn3CC(F)F)ccc2n1)c1ccnc(F)c1` [Compound 242, N-(6-(4-(3-chlorophenyl)-1-(2,2-difluoroethyl)-1H-imidazol-5-yl)imidazo[1,2-b]pyridazin-2-yl)-2-fluoroisonicotinamide]: the 50% inhibitory concentration (IC50) against CK1ε amounted to 12 nM; against CK1δ, 2.16 nM.

As usually defined, the IC50 is the point on the concentration scale where inhibition reaches its midpoint.

The record behind these values is patent US9556179B2 (BRISTOL-MYERS SQUIBB COMPANY, priority 2012, dated 2017).
